Experimental data published in ChEMBL document CHEMBL1121794, “Octanol-physiological buffer distribution coefficients of lipophilic amines by reversed-phase high-performance liquid chromatography and their correlation with biological activity” (J Med Chem, 1981).

Columns and labels:
[1] = not given; remark: listed apart in the source
[2] = Partition coefficient (logD7.4); details: octanol/water, pH 7.4
[3] = not given; remark: listed apart in the source
[4] = not given; remark: listed apart in the source
Rattus norvegicus [5] = species on record: Rattus norvegicus
[6] = Dissociation constant (pKa); details: octanol/water, pH 7.4
Rattus norvegicus [7] = species on record: Rattus norvegicus; remark: listed apart in the source
Description: Apparent partition coefficient was measured as histamine releasing activity in rat mast cells.

## CN(C)CCCN1c2ccccc2CCc2ccc(Cl)cc21 [CLOMIPRAMINE]
other
  Log k': 1.593
[1]
  Log k': 2.072
[2]
  logD: 3.24
[3]
  Log k': 1.479
[4]
  Log k': 1.041
Rattus norvegicus [5]
  Log 1/ED50: 2.22
[6]
  pKa: 9.5
Rattus norvegicus [7]
  Papp: 2.8
